How the values were obtained:
ABCG2 = biological target: T1, ABCG2 (Homo sapiens, UniProt Q9UNQ0); assay: vanadate-sensitive ATPase stimulation (endpoint Pi release) in ABCG2 membrane vesicles; supported by LC-MS/MS cell accumulation with and without Ko143; type: biochemical; conditions: read-out: % of basal ATPase activity (peak stimulation)
T1 construct: human ABCG2 in membrane vesicles of High-Five insect cells
T1 sequence (Q9UNQ0 1-655): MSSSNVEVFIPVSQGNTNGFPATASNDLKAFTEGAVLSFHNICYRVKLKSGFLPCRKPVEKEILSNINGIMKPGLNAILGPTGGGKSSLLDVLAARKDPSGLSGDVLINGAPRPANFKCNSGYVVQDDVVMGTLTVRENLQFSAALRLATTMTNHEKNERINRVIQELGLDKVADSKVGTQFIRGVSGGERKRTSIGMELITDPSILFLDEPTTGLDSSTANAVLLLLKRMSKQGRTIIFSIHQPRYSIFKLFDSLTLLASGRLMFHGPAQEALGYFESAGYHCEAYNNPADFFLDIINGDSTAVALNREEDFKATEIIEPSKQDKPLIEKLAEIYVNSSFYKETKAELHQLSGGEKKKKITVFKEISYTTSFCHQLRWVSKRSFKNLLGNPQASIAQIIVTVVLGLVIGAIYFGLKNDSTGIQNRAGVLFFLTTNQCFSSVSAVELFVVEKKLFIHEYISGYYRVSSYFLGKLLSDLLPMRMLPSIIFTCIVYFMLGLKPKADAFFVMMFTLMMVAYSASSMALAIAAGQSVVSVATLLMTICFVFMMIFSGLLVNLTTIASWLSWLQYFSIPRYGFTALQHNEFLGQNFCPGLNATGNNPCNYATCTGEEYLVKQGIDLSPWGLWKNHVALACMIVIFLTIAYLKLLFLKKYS

[1] = biological target: T2, epidermal growth factor receptor (EGFR) (Homo sapiens, UniProt P00533); assay: inhibition of EGF-induced EGFR phosphorylation (Tyr1068) in cells, immunoblot; type: cell-based
T2 construct: endogenous EGFR in S1 human colon cancer cells
T2 sequence (P00533 25-1210): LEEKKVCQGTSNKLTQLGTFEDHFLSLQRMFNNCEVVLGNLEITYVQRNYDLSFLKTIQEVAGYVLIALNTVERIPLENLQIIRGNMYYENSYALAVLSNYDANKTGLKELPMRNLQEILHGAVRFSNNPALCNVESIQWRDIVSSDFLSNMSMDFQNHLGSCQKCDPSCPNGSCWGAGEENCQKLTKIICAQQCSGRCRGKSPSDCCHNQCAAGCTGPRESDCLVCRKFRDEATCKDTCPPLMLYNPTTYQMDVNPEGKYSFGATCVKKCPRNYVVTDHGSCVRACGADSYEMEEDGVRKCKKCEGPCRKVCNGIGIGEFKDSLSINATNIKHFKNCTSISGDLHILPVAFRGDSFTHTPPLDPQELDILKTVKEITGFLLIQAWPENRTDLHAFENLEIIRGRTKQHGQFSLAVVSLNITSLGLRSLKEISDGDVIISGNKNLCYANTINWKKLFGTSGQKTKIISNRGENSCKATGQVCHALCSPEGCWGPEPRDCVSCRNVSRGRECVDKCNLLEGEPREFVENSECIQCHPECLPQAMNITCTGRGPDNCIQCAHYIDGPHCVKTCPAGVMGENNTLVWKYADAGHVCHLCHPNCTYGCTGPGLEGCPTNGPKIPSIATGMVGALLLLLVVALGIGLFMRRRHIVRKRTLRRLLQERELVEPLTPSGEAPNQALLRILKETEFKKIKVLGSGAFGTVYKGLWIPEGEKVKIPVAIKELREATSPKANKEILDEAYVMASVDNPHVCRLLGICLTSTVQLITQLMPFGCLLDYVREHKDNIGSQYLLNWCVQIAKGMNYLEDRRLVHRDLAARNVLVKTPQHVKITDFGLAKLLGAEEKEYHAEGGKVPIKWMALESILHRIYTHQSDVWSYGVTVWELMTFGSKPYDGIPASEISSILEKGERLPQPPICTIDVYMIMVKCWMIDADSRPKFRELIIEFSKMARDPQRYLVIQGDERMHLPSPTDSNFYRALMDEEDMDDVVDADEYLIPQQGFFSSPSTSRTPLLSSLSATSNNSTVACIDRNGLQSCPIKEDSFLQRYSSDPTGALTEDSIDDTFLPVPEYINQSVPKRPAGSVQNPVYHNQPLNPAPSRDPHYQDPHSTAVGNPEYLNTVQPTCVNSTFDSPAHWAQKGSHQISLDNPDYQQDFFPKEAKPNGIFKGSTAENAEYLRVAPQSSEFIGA

## CS(=O)(=O)Nc1cc(-c2ccc3ncnc(Nc4ccc(F)c(Cl)c4)c3c2)cnc1Cl [MTX-211]
ABCG2
  Emax: 157%
[1]
  IC50: 6.64 ± 1.27 µM
